According to patent US7759337B2, “Phthalazine compounds and methods of use” (Amgen Inc., priority 2005, dated 2010):

The molecules below were run on production of TNF by monocytes activated with bacterial lipopolysaccharide (LPS) (assay: Lipopolysaccharide-activated monocyte TNF production assay). Details: Homo sapiens; whole blood monocyte assay (LPS induced TNF release).
Assay type: cell-based
Protocol: Test compounds were evaluated in vitro for the ability to inhibit the production of TNF by monocytes activated with bacterial lipopolysaccharide (LPS). Fresh residual source leukocytes (a byproduct of plateletpheresis) were obtained from a local blood bank, and peripheral blood mononuclear cells (PBMCs) were isolated by density gradient centrifugation on Ficol-Paque Plus (Pharmacia). PBMCs were suspended at 2×10^6/mL in DMEM supplemented to contain 2% FCS, 10 mM, 0.3 mg/mL […], 100 U/mL penicillin G and […] streptomycin sulfate (complete media). Cells were plated into Falcon flat bottom, 96 well culture plates (200 μL/well) and cultured overnight at 37° C. and 6% CO2. Non-adherent cells were removed by washing with 200 μl/well of fresh medium.
Test compounds were dissolved in […]. Compound stock solutions were prepared to an initial concentration of […]. Stocks were diluted initially to 20-200 μM in complete media. Nine two-fold serial dilutions of each compound were then prepared in complete medium.
One hundred microliters of each test compound dilution were added to microtiter wells containing adherent monocytes and 100 μL complete medium. Monocytes were cultured with test compounds for 60 min at which time 25 μL of complete medium containing 30 ng/mL lipopolysaccharide from E. coli K532 were added to each well. Cells were cultured an additional 4 hrs. Culture supernatants were then removed and TNF presence in the supernatants was quantified using an ELISA.
Flat bottom, 96 well Corning High Binding ELISA plates were coated overnight (4° C.) with 150 μL/well of 3 μg/mL murine anti-human TNF-α MAb (R&D Systems #MAB210). Wells were then blocked for 1 h at room temperature with 200 μL/well of CaCl2-free ELISA buffer supplemented to contain 20 mg/mL BSA (standard ELISA buffer: […], 150 mM NaCl, 2 mM CaCl2, 0.15 mM thimerosal, pH 7.4). Plates were washed and replenished with 100 μL of test supernatants (diluted 1:3) or standards. Standards consisted of eleven 1.5-fold serial dilutions from a stock of I ng/mL recombinant human TNF (R&D Systems). Plates were incubated at room temperature for 1 h on orbital shaker (300 rpm), washed and replenished with 100 μL/well of 0.5 μg/mL goat anti-human TNF-α (R&D systems #AB-210-NA) biotinylated at a 4:1 ratio. Plates were incubated for 40 min, washed and replenished with 100 μL/well of alkaline phosphatase-conjugated streptavidin (Jackson ImmunoResearch #016-050-084) at 0.02 μg/mL. Plates were incubated 30 min, washed and replenished with 200 μL/well of 1 mg/mL of p-nitrophenyl phosphate. After 30 min, plates were read at 405 nm on a Vmax plate reader.
Standard curve data were fit to a second order polynomial and unknown TNF-α concentrations determined from their OD by solving this equation for concentration. TNF concentrations were then plotted vs. test compound concentration using a second order polynomial. This equation was then used to calculate the concentration of test compounds causing a 50% reduction in TNF production.

| SMILES | IC50 |
| --- | --- |
| CNC(=O)c1ccc(C)c(-c2ccc3c(NC(C)C)nncc3c2)c1 [Example 10, 3-(1-(isopropylamino)phthalazin-6-yl)-N,4-dimethylbenzamide] | ≤ 5 µM |
| Cc1ccc(C(=O)NC2CC2)cc1-c1ccc2c(-c3ccc(C(F)(F)F)cc3C(F)(F)F)nncc2c1 [Example 11, 3-(1-(2,4-bis(trifluoromethyl)phenyl)phthalazin-6-yl)-N-cyclopropyl-4-methylbenzamide] | ≤ 5 µM |
| Fc1ccc(Oc2ccc3c(-c4ccccc4Cl)nncc3c2)cc1 [Example 12, 1-(2-chlorophenyl)-6-(4-fluorophenoxy)phthalazine] | ≤ 5 µM |
| Cc1ccc(C(=O)NC2CC2)cc1-c1ccc2c(C(C)C)nncc2c1 [Example 13, N-Cyclopropyl-3-(1-isopropylphthalazin-6-yl)-4-methylbenzamide] | ≤ 5 µM |
| Cc1ccc2c(NC3CC3)noc2c1-c1ccc2c(N3CCOC[C@@H]3C)nncc2c1 [Example 14, N-cyclopropyl-6-methyl-7-(1-((S)-3-methylmorpholino)phthalazin-6-yl)benzo[d]isoxazol-3-amine] | ≤ 5 µM |
| CNc1noc2c(-c3ccc4c(N5CCOC[C@@H]5C)nncc4c3)c(Cl)ccc12 [Example 15, 6-chloro-N-methyl-7-(1-((S)-3-methylmorpholino)phthalazin-6-yl)benzo[d]isoxazol-3-amine] | ≤ 5 µM |
| C[C@H]1COCCN1c1nncc2cc(-c3ccc(C(F)(F)F)c4c(NC(C)(C)C)noc34)ccc12 [Example 16, N-tert-butyl-7-(1-((S)-3-methylmorpholino)phthalazin-6-yl)-4-(trifluoromethyl)benzo[d]isoxazol-3-amine] | ≤ 5 µM |
| Cc1ccccc1-c1ccc2c(N3CCOCC3c3ccc(Cl)cc3)nncc2c1 (stereo not shown) [Example 17, 1-(3-(4-chlorophenyl)morpholino)-6-o-tolylphthalazine] | ≤ 5 µM |
| Cc1ccc(-c2nncc3cc(-c4cc(C(=O)NC5CC5)ccc4C)ccc23)c(C)c1 [Example 18, N-cyclopropyl-3-[1-(2,4-dimethylphenyl)phthalazin-6-yl]-4-methylbenzamide] | ≤ 5 µM |
| Cc1ccc(C(=O)NC2CC2)cc1-c1ccc2c(N3CC4CC3CN4)nncc2c1 (stereo not shown) [Example 20, 3-(1-(2,5-diaza-bicyclo[2.2.1]heptan-2-yl)phthalazin-6-yl)-N-cyclopropyl-4-methylbenzamide] | ≤ 5 µM |
| Cc1ccc(C(=O)NC2CC2)cc1-c1ccc2c(N3CCN(C)CC3)nncc2c1 [Example 23, N-cyclopropyl-4-methyl-3-(1-(4-methylpiperazin-1-yl)phthalazin-6-yl)benzamide] | ≤ 5 µM |
| Cc1ccc(C(=O)NC2CC2)cc1-c1ccc2c(N3CC4CC3CO4)nncc2c1 (stereo not shown) [Example 27, 3-(1-(5-oxa-2-aza-bicyclo[2.2.1]heptan-2-yl)phthalazin-6-yl)-N-cyclopropyl-4-methylbenzamide] | ≤ 5 µM |
| Cc1ccc(C(=O)NC2CC2)cc1-c1ccc2c(N3CCCC(C(N)=O)C3)nncc2c1 (stereo not shown) [Example 29, 1-(6-(5-(cyclopropylcarbamoyl)-2-methylphenyl)phthalazin-1-yl)piperidine-3-carboxamide] | ≤ 5 µM |
| O=C(NC1CC1)c1ccc(Cl)c(-c2ccc3c(N4CCOCC4)nncc3c2)c1 [Example 38, 4-chloro-N-cyclopropyl-3-(1-morpholinophthalazin-6-yl)benzamide] | ≤ 5 µM |
| CCNC(=O)c1ccc(C)c(-c2ccc3c(N4CCOCC4)nncc3c2)c1 [Example 41, N-ethyl-4-methyl-3-(1-morpholinophthalazin-6-yl)benzamide] | ≤ 5 µM |
| COc1ccc(C(F)(F)F)cc1NC(=O)c1ccc(C)c(-c2ccc3c(N4CCOCC4)nncc3c2)c1 [Example 43, N-(2-methoxy-5-(trifluoromethyl)phenyl)-4-methyl-3-(1-morpholinophthalazin-6-yl)benzamide] | ≤ 5 µM |
| Cc1cc(C(=O)NC2CC2)sc1-c1ccc2c(N3CCOCC3)nncc2c1 [Example 46, N-cyclopropyl-4-methyl-5-(1-morpholinophthalazin-6-yl)thiophene-2-carboxamide] | ≤ 5 µM |

| SMILES | IC50 |
| --- | --- |
| Cc1cc(C(=O)O)sc1-c1ccc2c(N3CCOCC3)nncc2c1 [Example 47, 4-methyl-5-(1-morpholinophthalazin-6-yl)thiophene-2-carboxylic acid] | ≤ 5 µM |
| CCSc1nncc2cc(-c3cc(C(=O)NC4CC4)ccc3C)ccc12 [Example 55, N-cyclopropyl-3-(1-(ethylthio)phthalazin-6-yl)-4-methylbenzamide] | ≤ 5 µM |
| Cc1ccc(C(=O)NC2CC2)cc1-c1ccc2c(N3CCC(=O)CC3)nncc2c1 [Example 58, N-cyclopropyl-4-methyl-3-[1-(4-oxopiperidin-1-yl)phthalazin-6-yl]benzamide] | ≤ 5 µM |
| Cc1ccc(C(N)=O)cc1-c1ccc2c(N3CC[S+]([O-])CC3)nncc2c1 [Example 60, 4-methyl-3-[1-(1-oxidothiomorpholin-4-yl)phthalazin-6-yl]benzamide] | ≤ 5 µM |
| Cc1ccc(C(=O)NC2CC2)cc1-c1ccc2c(N3CCC(O)(C(C)C)CC3)nncc2c1 [Example 61, N-cyclopropyl-3-(1-(4-hydroxy-4-isopropylpiperidin-1-yl)phthalazin-6-yl)-4-methylbenzamide] | ≤ 5 µM |
| Cc1ccc(C(=O)NC2CC2)cc1-c1ccc2c(C3=CCNCC3)nncc2c1 [Example 62, N-cyclopropyl-4-methyl-3-(1-(1,2,3,6-tetrahydropyridin-4-yl)phthalazin-6-yl)benzamide] | ≤ 5 µM |
| Cc1ccc(C(=O)NC2CC2)cc1-c1ccc2c(N3CCNC[C@@H]3C)nncc2c1 [Example 63, N-cyclopropyl-4-methyl-3-(1-((S)-2-methylpiperazin-1-yl)phthalazin-6-yl)benzamide] | ≤ 5 µM |
| Cc1ccc(C(=O)NC2CC2)cc1-c1ccc2c(C3CCNCC3)nncc2c1 [Example 64, N-cyclopropyl-4-methyl-3-(1-(piperidin-4-yl)phthalazin-6-yl)benzamide] | ≤ 5 µM |
| CNc1noc2c(-c3ccc4c(N5C[C@@H](C)OC[C@H]5C)nncc4c3)c(C)ccc12 [Example 65, 7-(1-((2R,5R)-2,5-dimethylmorpholino)phthalazin-6-yl)-N,6-dimethylbenzo [d]isoxazol-3-amine] | ≤ 5 µM |
| CC(=O)N1CCN(c2nncc3cc(-c4cc(C(=O)N(C(C)=O)C5CC5)ccc4C)ccc23)CC1 [Example 66, N-acetyl-3-(1-(4-acetylpiperazin-1-yl)phthalazin-6-yl)-N-cyclopropyl-4-methylbenzamide] | ≤ 5 µM |
| CC(=O)N1CCC(c2nncc3cc(-c4cc(C(=O)NC5CC5)ccc4C)ccc23)CC1 [Example 67, 3-(1-(1-acetylpiperidin-4-yl)phthalazin-6-yl)-N-cyclopropyl-4-methylbenzamide] | ≤ 5 µM |
| Cc1ccc(C(=O)NC2CC2)cc1-c1ccc2c(N3C(C)CC[C@@H]3C(=O)NC(C)C)nncc2c1 (stereo partly drawn) [Example 68, (2R)-1-(6-(5-(Cyclopropylcarbamoyl)-2-methylphenyl)phthalazin-1-yl)-N-isopropyl-5-methylpyrrolidine-2-carboxamide] | ≤ 5 µM |
| O=C(NC1CC1)c1cccc(-c2ccc3c(N4CCOCC4)nncc3c2)c1 [Example 69, N-Cyclopropyl-3-(1-morpholin-4-ylphthalazin-6-yl)benzamide] | ≤ 5 µM |
| Cc1ccc(C(=O)NC2CC2)cc1-c1ccc2c(C(=O)NC(C)C)nncc2c1 [Example 70, 6-{5-[(Cyclopropylamino)carbonyl]-2-methylphenyl}-N-isopropylphthalazine-1-carboxamide] | ≤ 5 µM |
| O=C(NC1CC1)c1ccc(F)c(-c2ccc3c(N4CCOCC4)nncc3c2)c1 [Example 72, N-Cyclopropyl-4-fluoro-3-(1-morpholin-4-ylphthalazin-6-yl)benzamide] | ≤ 5 µM |
| NC(=O)c1ccc(Cl)c(-c2ccc3c(N4CCOCC4)nncc3c2)c1 [Example 73, 4-Chloro-3-(1-morpholin-4-ylphthalazin-6-yl)benzamide] | ≤ 5 µM |
| Cc1ccc(C(=O)NC2CC2)cc1-c1ccc2c(N3CCOC[C@H]3C)nncc2c1 [Example 75, N-Cyclopropyl-4-methyl-3-{1-[(3R)-3-methylmorpholin-4-yl]phthalazin-6-yl}benzamide] | ≤ 5 µM |
